Measurements as given in PubChem BioAssay (NCI).
Several values for one entry are separate records, joined by “and”; a condition that tells them apart may be missing. Identical values can stand only once.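 Briefly, cells in 96-well plates were exposed to five compound concentrations for 48 h, and endpoints were estimated by linear interpolation. GI50 is the concentration that inhibits growth by half. TGI denotes the concentration required for complete inhibition of growth.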

Tests used:
Experiment in all cases: DTP human tumour cell line panel, 48 h
MDA-MB-468 breast = system: MDA-MB-468 breast
HOP-92 NSCLC = system: HOP-92 NSCLC
HCT-116 colon = system: HCT-116 colon
BT-549 breast = system: BT-549 breast
EKVX NSCLC = system: EKVX NSCLC
SR leukemia = system: SR leukemia
SK-MEL-5 melanoma = system: SK-MEL-5 melanoma
OVCAR-5 ovarian = system: OVCAR-5 ovarian
UACC-62 melanoma = system: UACC-62 melanoma
IGROV1 ovarian = system: IGROV1 ovarian
ACHN renal = system: ACHN renal
MCF7 breast = system: MCF7 breast
U251 CNS = system: U251 CNS
786-0 renal = system: 786-0 renal
PC-3 prostate = system: PC-3 prostate
M14 melanoma = system: M14 melanoma
NCI-H522 lung = system: NCI-H522 lung
OVCAR-8 ovarian = system: OVCAR-8 ovarian
DU-145 prostate = system: DU-145 prostate
HCC-2998 colon = system: HCC-2998 colon
SF-268 CNS = system: SF-268 CNS
LOX IMVI melanoma = system: LOX IMVI melanoma
HCT-15 colon = system: HCT-15 colon
TK-10 renal = system: TK-10 renal
HS 578T breast = system: HS 578T breast
SN12C renal = system: SN12C renal
UO-31 renal = system: UO-31 renal
NCI-H23 lung = system: NCI-H23 lung
SNB-75 CNS = system: SNB-75 CNS
SK-MEL-28 melanoma = system: SK-MEL-28 melanoma
OVCAR-4 ovarian = system: OVCAR-4 ovarian
NCI-H460 lung = system: NCI-H460 lung
OVCAR-3 ovarian = system: OVCAR-3 ovarian
HT29 colon = system: HT29 colon
NCI-H226 lung = system: NCI-H226 lung
MALME-3M melanoma = system: MALME-3M melanoma
MDA-MB-231 breast = system: MDA-MB-231 breast
RPMI-8226 leukemia = system: RPMI-8226 leukemia
MOLT-4 leukemia = system: MOLT-4 leukemia
A498 renal = system: A498 renal
UACC-257 melanoma = system: UACC-257 melanoma
A549 NSCLC = system: A549 NSCLC
MDA-MB-435 = system: MDA-MB-435
T-47D breast = system: T-47D breast
SF-295 CNS = system: SF-295 CNS
NCI/ADR-RES ovarian = system: NCI/ADR-RES ovarian
SF-539 CNS = system: SF-539 CNS
SK-OV-3 ovarian = system: SK-OV-3 ovarian
HOP-62 NSCLC = system: HOP-62 NSCLC
CCRF-CEM leukemia = system: CCRF-CEM leukemia
SK-MEL-2 melanoma = system: SK-MEL-2 melanoma
CAKI-1 renal = system: CAKI-1 renal
SNB-19 CNS = system: SNB-19 CNS
RXF 393 renal = system: RXF 393 renal
HL-60(TB) leukemia = system: HL-60(TB) leukemia
KM12 colon = system: KM12 colon

COC(=O)N[C@H]1CCc2c(Cl)c(OC)c(OC)c(OC)c2-c2ccc(SC)c(=O)cc21 gave a GI50 (MDA-MB-468 breast) of less than 0.01 µM and a TGI (MDA-MB-468 breast) of 23.1 µM.

With O=C(Nc1cccc(C(F)(F)F)c1)Oc1ccc(Cl)c2cccnc12 the GI50 (MDA-MB-468 breast) was 1.79 µM and the TGI (MDA-MB-468 breast) was 4.28 µM.

For CC(C)c1ccc(NC(=O)Cc2ccc(Nc3ncnc4cc(-c5cnn(CCN(C)C)c5)ccc34)cc2)cc1, the GI50 (MDA-MB-468 breast) was 1.34 µM and the TGI (MDA-MB-468 breast) was 3.72 µM.

With CC(C)(C)OC(=O)N[C@@H](Cc1ccccc1)C(=O)N(Cc1ccccc1)C1(C(=O)NCc2ccccc2)CCN(Cc2ccccc2)CC1 the GI50 (MDA-MB-468 breast) was 1.62 µM and the TGI (MDA-MB-468 breast) was 5.91 µM.

For O=C1c2cc3c(cc2-c2c1c1ccc(Cl)cc1c(=O)n2CCCn1ccnc1)OCO3, the GI50 (MDA-MB-468 breast) was less than 0.01 µM and the TGI (MDA-MB-468 breast) was 0.0144 µM.

For Nc1cccc2c1C(=O)c1cccc(NC(=O)c3ccccc3)c1C2=O, the GI50 (MDA-MB-468 breast) was 0.577 µM and the TGI (MDA-MB-468 breast) was 7.03 µM.

In the case of COc1cc(NCCCCCN=C(N)NC(N)=NC(C)C)c2ncccc2c1, the GI50 (MDA-MB-468 breast) is reported as 0.0903 µM and the TGI (MDA-MB-468 breast) is reported as 0.594 µM.

In the case of COc1cc2nccc(Oc3ccc(NC(=O)c4cn(C(C)C)c(=O)n(-c5ccc(F)cc5)c4=O)cc3F)c2cc1OC, the GI50 (MDA-MB-468 breast) is reported as greater than 100 µM and the TGI (MDA-MB-468 breast) is reported as greater than 100 µM.

Cc1ccc(C(=O)NC2CC2)cc1-c1ccc2[nH]ncc2c1 showed a GI50 (MDA-MB-468 breast) greater than 23 µM and a TGI (MDA-MB-468 breast) greater than 25 µM.

Compound Cc1cc(O)c(-c2ccc([C@@H](C)CN(C)C)cc2)c2c1[nH]c(=O)c1sccc12 has a GI50 (MDA-MB-468 breast) of 0.514 µM and a TGI (MDA-MB-468 breast) of 3.94 µM.

With CS(=O)(=O)N(c1cc(-c2ccc3ncnc(Nc4ccc(F)c(Cl)c4)c3c2)cnc1Cl)S(C)(=O)=O the GI50 (MDA-MB-468 breast) was 0.467 µM and the TGI (MDA-MB-468 breast) was 2.55 µM.

CNC(=O)c1ccccc1Nc1nc(Nc2ccc3c(c2OC)CCC[C@H](N2CCN(CCO)CC2)C3)ncc1Cl was tested, and the GI50 (MDA-MB-468 breast) was 1.21 µM and 0.696 µM and the TGI (MDA-MB-468 breast) was 3.33 µM and 2.5 µM.

Compound COc1ccc2nc3cc(Cl)ccc3c(Nc3cc(CN4CCCC4)c(O)c(CN4CCCC4)c3)c2n1 has a GI50 (MDA-MB-468 breast) of 1.33 µM and a TGI (MDA-MB-468 breast) of 2.76 µM.

For COC(=O)[C@H](Cc1cn(C)cn1)NC(=O)[C@H](Cc1ccccc1)NC(=O)Nc1cc(C(F)(F)F)cc(C(F)(F)F)c1, the GI50 (MDA-MB-468 breast) was 4.4 µM and 4.23 µM and the TGI (MDA-MB-468 breast) was 17.7 µM.

COc1ccc(NC(=O)Cn2c(/C=C/c3ccc(N(C)C)cc3)nc3ccccc3c2=O)cc1 gave a GI50 (HOP-92 NSCLC) of 3.65 µM, a TGI (HOP-92 NSCLC) of 18.9 µM and a GI50 (HCT-116 colon) of 3.05 µM. For the same compound, the TGI (HCT-116 colon) was 11.2 µM, the GI50 (MDA-MB-468 breast) was 3.11 µM and the TGI (MDA-MB-468 breast) was 21.2 µM. The GI50 (BT-549 breast) was 2.01 µM, the TGI (BT-549 breast) was 5.43 µM and the GI50 (EKVX NSCLC) was 40.3 µM. It also gave a TGI (EKVX NSCLC) greater than 100 µM, a GI50 (SR leukemia) greater than 100 µM and a TGI (SR leukemia) greater than 100 µM. For the same compound, the GI50 (SK-MEL-5 melanoma) was 2.96 µM, the TGI (SK-MEL-5 melanoma) was 10.4 µM and the GI50 (OVCAR-5 ovarian) was greater than 100 µM. It also gave a TGI (OVCAR-5 ovarian) greater than 100 µM, a GI50 (UACC-62 melanoma) of 2.96 µM and a TGI (UACC-62 melanoma) of 13.1 µM. The GI50 (IGROV1 ovarian) was 36.7 µM, the TGI (IGROV1 ovarian) was greater than 100 µM and the GI50 (ACHN renal) was 3.25 µM. It also gave a TGI (ACHN renal) of 11.4 µM, a GI50 (MCF7 breast) of 4.35 µM and a TGI (MCF7 breast) greater than 100 µM. For the same compound, the GI50 (U251 CNS) was 3.72 µM, the TGI (U251 CNS) was 18.5 µM and the GI50 (786-0 renal) was 2.03 µM. For the same compound, the TGI (786-0 renal) was 4.62 µM, the GI50 (PC-3 prostate) was 5.6 µM and the TGI (PC-3 prostate) was greater than 100 µM. For the same compound, the GI50 (M14 melanoma) was 12.9 µM, the TGI (M14 melanoma) was greater than 100 µM and the GI50 (NCI-H522 lung) was 5.69 µM. It also gave a TGI (NCI-H522 lung) of 29.4 µM, a GI50 (OVCAR-8 ovarian) of 13.5 µM and a TGI (OVCAR-8 ovarian) greater than 100 µM. For the same compound, the GI50 (DU-145 prostate) was 7.64 µM, the TGI (DU-145 prostate) was greater than 100 µM and the GI50 (HCC-2998 colon) was 6.21 µM. It also gave a TGI (HCC-2998 colon) greater than 100 µM, a GI50 (SF-268 CNS) of 12.4 µM and a TGI (SF-268 CNS) greater than 100 µM. The GI50 (LOX IMVI melanoma) was 4.48 µM, the TGI (LOX IMVI melanoma) was greater than 100 µM and the GI50 (HCT-15 colon) was 13.6 µM. The TGI (HCT-15 colon) was greater than 100 µM, the GI50 (TK-10 renal) was 6.22 µM and the TGI (TK-10 renal) was 24.2 µM. The GI50 (HS 578T breast) was 4.88 µM, the TGI (HS 578T breast) was 74.9 µM and the GI50 (SN12C renal) was greater than 100 µM. The TGI (SN12C renal) was greater than 100 µM, the GI50 (UO-31 renal) was 2.92 µM and the TGI (UO-31 renal) was 31.3 µM. The GI50 (NCI-H23 lung) was 3.79 µM, the TGI (NCI-H23 lung) was 22.5 µM and the GI50 (SNB-75 CNS) was 3.86 µM. For the same compound, the TGI (SNB-75 CNS) was 39.9 µM, the GI50 (SK-MEL-28 melanoma) was 6.07 µM and the TGI (SK-MEL-28 melanoma) was greater than 100 µM. The GI50 (OVCAR-4 ovarian) was 28.9 µM, the TGI (OVCAR-4 ovarian) was greater than 100 µM and the GI50 (NCI-H460 lung) was 3.63 µM. For the same compound, the TGI (NCI-H460 lung) was greater than 100 µM, the GI50 (OVCAR-3 ovarian) was greater than 100 µM and the TGI (OVCAR-3 ovarian) was greater than 100 µM. For the same compound, the GI50 (HT29 colon) was 6.32 µM, the TGI (HT29 colon) was greater than 100 µM and the GI50 (NCI-H226 lung) was 2.31 µM. It also gave a TGI (NCI-H226 lung) of 6.24 µM, a GI50 (MALME-3M melanoma) of 3.95 µM and a TGI (MALME-3M melanoma) of 24 µM. It also gave a GI50 (MDA-MB-231 breast) of 2.61 µM, a TGI (MDA-MB-231 breast) of 6.84 µM and a GI50 (RPMI-8226 leukemia) of 7.14 µM. The TGI (RPMI-8226 leukemia) was greater than 100 µM, the GI50 (MOLT-4 leukemia) was greater than 100 µM and the TGI (MOLT-4 leukemia) was greater than 100 µM. It also gave a GI50 (A498 renal) of 4.19 µM, a TGI (A498 renal) of 19.8 µM and a GI50 (UACC-257 melanoma) of 84.5 µM. For the same compound, the TGI (UACC-257 melanoma) was greater than 100 µM, the GI50 (A549 NSCLC) was 13.9 µM and the TGI (A549 NSCLC) was greater than 100 µM. The GI50 (MDA-MB-435) was 7.19 µM, the TGI (MDA-MB-435) was greater than 100 µM and the GI50 (T-47D breast) was 4.27 µM. It also gave a TGI (T-47D breast) greater than 100 µM, a GI50 (SF-295 CNS) of 3 µM and a TGI (SF-295 CNS) of 11.9 µM. It also gave a GI50 (NCI/ADR-RES ovarian) of 3.51 µM, a TGI (NCI/ADR-RES ovarian) of 20.4 µM and a GI50 (SF-539 CNS) of 1.79 µM. The TGI (SF-539 CNS) was 3.67 µM, the GI50 (SK-OV-3 ovarian) was 3.22 µM and the TGI (SK-OV-3 ovarian) was 8.35 µM. For the same compound, the GI50 (HOP-62 NSCLC) was 5 µM, the TGI (HOP-62 NSCLC) was 20.6 µM and the GI50 (CCRF-CEM leukemia) was greater than 100 µM. For the same compound, the TGI (CCRF-CEM leukemia) was greater than 100 µM, the GI50 (SK-MEL-2 melanoma) was 16.1 µM and the TGI (SK-MEL-2 melanoma) was 47.9 µM. The GI50 (CAKI-1 renal) was 4.12 µM, the TGI (CAKI-1 renal) was 20.7 µM and the GI50 (SNB-19 CNS) was 13.1 µM. For the same compound, the TGI (SNB-19 CNS) was 40.3 µM, the GI50 (RXF 393 renal) was 2.09 µM and the TGI (RXF 393 renal) was 5.27 µM. It also gave a GI50 (HL-60(TB) leukemia) greater than 100 µM, a TGI (HL-60(TB) leukemia) greater than 100 µM and a GI50 (KM12 colon) greater than 100 µM. The TGI (KM12 colon) was greater than 100 µM.
